Reference: article PMC10042540, “Targeting oncogenic KRasG13C with nucleotide-based covalent inhibitors” (eLife, 2023)
Values belong to the molecule of their own block, whether it stands above or below them.

Key:
[1] = test system: nucleotide-free KRas; experiment: Stopped-flow competition with mantdGDP (association kinetics); format: binding; settings: for kon: 25 °C, 1 µM KRas, 2 µM mantdGDP, 1, 2, 6 µM competing nucleotide, global fit
Description: The association kinetics of the nucleotide analogues were analyzed with a SX-20 stopped-flow instrument (Applied Photophysics) at 25 °C in a buffer consisting of 25 mM HEPES (pH 7.5), 100 mM NaCl, 1 mM MgCl2, and 0.5 mM TCEP. 1 µM of nucleotide-free KRas ([Müller et al., 2017]) in one syringe was mixed rapidly with 2 µM mantdGDP in the other. In subsequent experiments, the second syringe contained competing nucleotides (1, 2, and 6 µM) in addition to 2 µM mantdGDP. The resulting progress curves were globally fit using KinTek Explorer to obtain the corresponding association rate constants as previously described (Table 1—source data 1, Table 1—source data 2 [Johnson et al., 2009]).

[2] = test system: T1, KRasG13C1-169 (Cys-light); experiment: Covalent modification of protein controlled by ESI-MS; format: binding
T1 construct: KRasWT1-169 and KRasG13C1-169 Cys-light (C51S C80L C118S) were expressed in BL21 (DE3) E. coli; hexahistidine (TEV site) (N, cleaved yes); made in house; host or cells: E. coli BL21 (DE3)
Description: After incubation at room temperature for the appropriate time, the modification of the protein was controlled by ESI-MS. For covalent modification of full-length KRasG13C, a nucleotide exchange with a 10-fold excess of the acryl-bearing nucleotides at pH 7.5 was first performed following incubation at room temperature for 24 h at pH 9.5 for covalent protein modification. Covalent protein modification was controlled by ESI-MS. The MS spectra were recorded on a VelosPro IonTrap (Thermo Scientific) with an EC 50/3 Nucleodur C18 1.8 μm column (Macherey and Nagel) and a gradient of the mobile phase A (0.1% formic acid in water) to B (0.1% formic acid in acetonitrile).

[3] = test system: Rab21; experiment: as above; format: binding; settings: compared to KRasG13C
[4] = biological target: KRasWT1-169 (Homo sapiens, UniProt P01116); experiment: HPLC-based approach for determination of affinities relative to GDP; format: binding; settings: KA = KA(GDP) x KrelA; GDP from KA = 1/KD
Description: The relative affinities of the nucleotide analogues were measured using an HPLC-based approach. 50 μM of […] was mixed with 50 μM of the acetamide derivatives and incubated either for 7 days at room temperature in the absence of EDTA, for 24 hr at 4 °C in the presence of 10 mM EDTA, or for 1 hr at room temperature in the presence of SOS in a buffer consisting of 20 mM HEPES (pH 7.5), 100 mM NaCl, 2 mM MgCl2, 1 mM TCEP and 5% glycerol. After incubation, the Ras proteins were washed five times with buffer (15 mL) using centrifugal filter devices to remove any unbound nucleotide, concentrated and analysed by isocratic HPLC runs. The resulting curves were analysed by integrating the corresponding peaks for GDP and the guanosine nucleotide analogues after distinct time points using the Agilent ChemStation Software (Table 1-source data 3, Table 1-source data 4). Based on the percentage distribution determined by the HPLC assay, the relative association constants (KrelA) for […] and bdaGDP could subsequently be calculated. In contrast, the superposition of the GDP signal prevented an exact determination of the relative association constant for […] values of 0.34 and 0.28 relative to GDP were determined for […] and bdaGDP, respectively. […] By rearranging the equilibrium reactions listed in (Equation 1a) and (Equation 1b), the following relationships are obtained for KGDP (Equation 2a) and […] Assuming that the concentration for aGDP used in the HPLC assay is 50 μM, the following GDP concentrations for […] (Equation 3a) and bdaGDP (Equation 3b) can be determined at time t=0 hr using the percentages determined in Table 1-source data 3:(3a) GDPtotal=%GDP/%[…]=37%/63%×50μM=29.4μM (3b) GDPtotal=%GDP/%bdaGDP=43%/57%×50μM=37.7μM The concentrations of the components listed in equation (Equation 2b) can be calculated as follows for […] (Equation 4a, Equation 4b, Equation 4c, Equation 4d) and bdaGDP (Equation 5a, Equation 5b, Equation 5c, Equation 5d) by considering the total GDP concentrations calculated previously:(4[…]]=47/100×29.4μM=13.8μM (4b) [Ras:GDP]=53/100×29.4μM=15.6μ[…]]=50μM-13.8μM=36.2μM (4d) [GDP]=29.4μM-15.6μM=13.8μM (5a) [Ras:bdaGDP]=39.5/100×37.7μM=14.9μM (5b) [Ras:GDP]=60.5/100×37.7μM=22.8μM (5c) [bdaGDP]=50μM-14.9μM=35.1μM (5d) [GDP]=37.7μM-22.8μM=14.9μM The relative association constant KrelA can be calculated by the following formula (Equation 6):(6) […] By inserting the concentrations of each component determined from (Equation 4a, Equation 4b, Equation 4c, Equation 4d) and (Equation 5a, Equation 5b, Equation 5c, Equation 5d) into (Equation 6), the relative association constants KrelA for […] (Equation 10a) and […]=1/0.136pM^-1=7.4pM (10b) KDbdaGDP=1/0.112pM^-1=8.9pM

[5] = biological target: KRas; parameters: method as in Jeganathan et al., 2018; settings: reference value for GDP; ref Jeganathan et al., 2018; cited from earlier work

Chain of KRasWT1-169 (P01116 1-169): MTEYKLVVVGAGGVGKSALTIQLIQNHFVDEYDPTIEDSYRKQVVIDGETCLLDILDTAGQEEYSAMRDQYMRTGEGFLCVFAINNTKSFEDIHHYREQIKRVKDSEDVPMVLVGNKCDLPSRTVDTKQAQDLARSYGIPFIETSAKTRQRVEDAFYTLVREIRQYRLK

SMILES: C=CC(=O)NCCNC(=O)O[C@H]1[C@@H](O)[C@H](n2cnc3c(=O)[nH]c(N)nc32)O[C@@H]1COP(=O)(O)OP(=O)(O)O [edaGDP]
kon [1]: 3.73 µM^–1s^–1 | covalent labelling of KRasG13C1-169 (Cys-light) ([2]; pH 7.5, after 24 hr): slight labelling | covalent labelling of KRasG13C1-169 (Cys-light) ([2]; pH 9.5, after 24 hr): ~100% | covalent modification of Rab21 [3]: comparable to KRasG13C

KA [4]: 0.4 pM⁻¹
SMILES: Nc1nc2c(ncn2[C@@H]2O[C@H](COP(=O)(O)OP(=O)(O)O)[C@@H](O)[C@H]2O)c(=O)[nH]1 [GDP, reference compound]
kon [1]: 4.22 µM^–1s^–1 | koff ([1]; calculated kinetic parameter): 1.1x10^–5 s^–1 | Kd [5]: 2.5 pM
